Measurements from patent publication US6436416B1, “Cosmetic skin conditioning compositions containing high performing retinyl esters” (Unilever Home & Personal Care USA, division of Conopco, Inc., priority 2000, dated 2002).

Assays:
[1] = test system: CRABP-2 expression of pig skin epidermis; experiment: CRABP-2 assay; assay type: cell-based; conditions: topical dose 5 μl in ethanol vehicle, four days, control as 100%
Excerpt: Within the cells, retinol and retinoic acid are bound to specific cellular binding proteins. Two of the major proteins are CRABP-1 and CRABP-2 (Roos et al., Pharmacological reviews: 50, 315-333, 1998). These proteins regulate the intracellular concentration of retinoids by acting as either storage or shuttle proteins in retinoid metabolism. The levels of CRABP protein are regulated by the amount of retinoic acid within the cells. Higher cellular levels of retinoids increase the expression of CRABP-2. Therefore, the amount of this protein in the cells is a measure of the retinoid activity of the cells. Skin cells contain high levels of CRABP-2 both in the epidermis and the dermis. CRABP-2 response to retinoid administration in is used as a reproducible measure of retinoid bioactivity that predict human skin responses (Elder et al., J. Invest. Dermatol., 106: 517-521, 1996). Increase in CRABP-2 is also associated with increased epidermal differentiation, and dermal retinoid action. Therefore, in these studies we used CRABP-2 expression of pig skin epidermis as a measure of retinoid activity leading to increased epidermal differentiation (skin conditioning and dry skin benefit) and dermal collagen and extracellular matrix synthesis (antiaging, anti wrinkling benefits).
Pig skin was received, scrubbed with Vionex detergent, and dermatomed at a thickness of 0.058 cm and allowed to wash in preliminary medium on a shaker for an hour with three solution changes.
7 mm punches were taken and allowed to sit in final medium overnight. The next day, the medium was refreshed with final medium 1 mL per well. One day later, the plates received fresh final medium,and topically dosed with 5 μl of the active(s) in an ethanol vehicle.
After four days, the biopsies will be removed from the plates, washed with PBS in a concial tube, and frozen at −80° C. for future use.
After thawing, the epidermis was separated and boiled in urea and sample buffer, after which protein quantitation was possible.
16% 15 lane acrylamide gels were loaded ewith the appropriate samples and run until all the proteins were separated based upon their molecular weight.
The gels were transferred onto PVDF membranes at 25 constant Volts for 2.5 hours.
The membranes were blocked with 5% milk in TBST (Tween 0.05%) for one hour at room temperature.
Primary Ab exposure 1:1,000 in 1% milk TBS soln for one hour, followed by six washes with TBST over a period of one hour. […]
The bands in the film were quantified by densitometric scanning, the data from triplicate samples were calculated as % of control and expressed in the following tables as % increase over control (with control as 100%).

Procollagen I = Procollagen I assay; assay type: cell-based, human; conditions: fibroblasts, control at 100%
Excerpt: Collagen is a predominant skin protein. Its synthesis decreases with aging or photodamage. The degradation or destruction of collagen […] the tensile strength of the skin causing wrinkles and laxity. Many studies involving human subjects have shown that collagen type I is decreased with increasing severity of photodamage (See Kligman, A., JAMA, (1969), 210, pp. 2377-2380; Lavker, R., J. Inv Derm., (1979), 73, 79-66; Smith J. et al., J. lnv. Derm., (1962), 39, pp. 347-350; and Shuster, S. et al., Br. J. Dermatol., (1975), 93, pp. 639-643); and some correlation in the histology of wrinkles and reduction in collagen levels in the sun-exposed skin has been reported. See Chen, S.; Kiss, I., J. Inv. Derm., (1992), 98. pp. 248-254. Voorhees and colleagues have supported these findings by showing the restoration of collagen type I in photo-damaged human skin by a topical treatment with tretinoin. See Christopher, E., et al., The New Eng. Jou. of Medicine (1993), 329, pp. 530-535. Procollagen I is a precursor of collagen. Increased production of procollagen I in response to a test compound application is a marker of an increased collagen level.
Seed passage 3 (P3) fibroblasts in 6-well tissue culture treated dishes at a density of ˜10,000 cells/well.
Culture cells until ˜70% confluent in high glucose Dulbecco's Modified Eagles Medium (DMEM).
When cells are ˜70% confluent, replace with fresh medium, dose with actives and continue culturing until cells are 100% confluent.
Remove media and store at 4° C.
Dilute 20 μl conditioned (treated) media in 200 μl unconditioned DMEM.
Soak nitrocellulose membrane and 3 sheets of filter paper in 1×TBS (tris buffered saline, pH=7.3).
Set up Bio-Rad slot blot apparatus with filter paper on bottom, nitrocellulose membrane on top. Add 100 μl TBS/well. Vacuum dry.
Remove membrane from apparatus and place in blocking solution (5% milk powder in phosphate buffered saline (PBS)) for 1 hr at room temperature or overnight at 4° C.
Primary antibody-Remove membrane from blocking solution and incubate for 1.5 hours at room temperature or overnight at 4° C. with 1.5 ml rat anti-human procollagen amino-terminal antibody (Chemicon MAB1912) 1:100 in TBS with 0.1% bovine serum albumin (BSA).
Remove membrane, was 3×(10 minutes/wash) in TBS/0.1% tween 20.
Secondary antibody-incubate for 1 hour at room temperature or overnight at 4° C. in 2 ml 1:1000 biotinylated anti-rat peroxidase conjugated antibody (Vector Labs).
Remove membrane from secondary antibody and was 3×(10 minutes/wash) in TBS/0.1% tween 20.
Preincubate 3 ml PBS with 30 μl each of solutions A and B from Vectastain kit for 30 minutes. […]
Scan using a laser densitometer and quantified as % over control (with control at 100%).

Row | Structure (SMILES) | % over control ([1]; concentration 10^−3 M) | % over control ([1]; concentration 10^−4 M) | other results
1 | CCCCCCCCCCC/C=C/CCCCC(=O)OC/C=C(C)/C=C/C=C(C)/C=C/C1=C(C)CCCC1(C)C [Retinyl petroselinate, Retinyl Petroselinate] | 522 % over control | – | % over control (Procollagen I; Experiment 1, concentration 10^−6 M, p < 0.05): 110 % over control
2 | CCCCCCCCCCCCCCCC(=O)OC/C=C(C)/C=C/C=C(C)/C=C/C1=C(C)CCCC1(C)C [Retinyl Palmitate, reference compound] | 444 % over control | – | % over control (Procollagen I; Experiment 3, concentration 10^−7 M, not significant): 24 % over control
3 | CCCCC/C=C/CCCCCCCCCCC(=O)OC/C=C(C)/C=C/C=C(C)/C=C/C1=C(C)CCCC1(C)C [Retinyl cis-12-Octadecenoate, Retinyl-cis12-Octadecenoate] | – | 993 % over control | % over control (Procollagen I; Experiment 2, concentration 10^−6 M, p < 0.05): 28 % over control
4 | CCCCC/C=C/C/C=C/C/C=C/CCCCC(=O)OC/C=C(C)/C=C/C=C(C)/C=C/C1=C(C)CCCC1(C)C [Gamma-retinyl linolenate, Retinyl-cis-6,9,12-Octadecatrienoate] | – | 882 % over control | % over control (Procollagen I; Experiment 1, concentration 10^−5 M, p < 0.05): 225 % over control
